Columns and labels:
[1] = Blood-brain barrier (BBB) permeability in ICR mice; format: in vivo; details: 500 mg/kg
Procedure: Each of L-serine and AST-099 was administered to 7-week-old ICR mice (n=3) at a dose of 500 mg/kg, and then the brain tissue and the blood were collected. The concentrations of L-serine distributed in the blood and the brain were quantified using LC/MS, and the BBB permeability was compared between the drugs by calculating the ratio of the concentration of L-serine in the brain to that in the blood.

[2] = tested on: hippocampal neuronal cell HT-22; experiment: MTT cell viability / neuronal cell proliferation assay; details: for effect on cell proliferation in complete medium: L-serine versus AST-009, 25 to 10,000 μg
Procedure: Murine hippocampal neuronal cell line HT-22 was cultured in Dulbecco's Modified Eagle's Medium (DMEM) supplemented with 10% fetal bovine serum (FBS) and 100 μg/ml gentamycin at 37° C. under a 5% CO2 atmosphere. In this Example, cells at passage 15 or below were used.
Cell proliferation activity was examined by an MTT assay for measuring cell viability. First, hippocampal neuronal cell HT-22 (1×10^4 cells) was incubated with each of serially diluted sample solutions in 96-well plates for 16 hours, and then mixed with 50 μl of MTT (3-(4,5-dimethyl thiazolyl)2,5-diphenyl tetrazolium bromide) solution (1.1 mg/ml), followed by additional incubation for 4 hours. The formed formazan crystal was dissolved in 150 μl of […], and the optical density (OD) at 540 nm was measured using a plate reader.

[3] = tested on: mouse hippocampal neuronal HT-22 cells treated with DMNQ; experiment: Neuronal cell protection against DMNQ-induced oxidative stress (DiOC6 staining); format: cell-based; details: DMNQ 10 μM, DMNQ alone 77.8%
Procedure: First, 1×10^6 cells were washed three times with 2% FBS-containing PBS solution, and the washed cells were suspended in 70% ethanol and fixed at 4° C. for 1 hour. The fixed cells were washed twice with the same solution, suspended in 250 μl of RNase A solution (50 μg/ml concentration), and incubated at 37° C. for 30 minutes to remove RNA from the cells. Then, DNA in the cells was stained at room temperature for 20 minutes by adding 250 μl of 1.12% sodium citrate buffer (pH 8.45) containing 50 μg/ml of propidium iodide. The cells were analyzed with a flow cytometer (FACS Calibur), and the distribution of the cell cycle was examined based on the content of stained DNA in each cell.
The cell protective activity of the selected drug (AST-009) against DMNQ-induced oxidative stress was compared by DiOC6 staining. […] Thus, it could be seen that the cell protective activity of AST-009 was much stronger than that of L-serine.

[4] = L-serine quantified by LC/MS, ICR mice, n=3

Structure (SMILES) | Concentration, Brain tissue ([1]; mouse, in vivo) | Concentration, Plasma ([1]; mouse, in vivo) | HT-22 cell proliferation (cell viability, MTT) ([2]; L-serine/glycerin-deficient medium, treatment concentration of 10,000 μg/ml (=10 mg/ml)) | effect on cell proliferation in complete medium [2] | cell damage rate (membrane potential loss) ([3]; compound 0.5 mg/ml) | cell damage rate (membrane potential loss) ([3]; compound 1 mg/ml) | cell damage rate (membrane potential loss) ([3]; compound 5 mg/ml) | Concentration, Brain tissue [1, 4] | Concentration, Plasma [1, 4] | Kp ([1]; mouse, brain/plasma, ratio of L-serine concentration in brain to that in blood, ICR mice, n=3, read-out: Cbrain/Cplasma) | Cbrain/Cplasma ([1]; ratio of L-serine concentration in brain to that in blood, ICR mice, n=3) | effect on cell proliferation at high concentration ([2]; L-serine/glycerin-deficient medium, concentration of 1 mg/ml or more)
NCCCC[C@H](NC(=O)[C@H](CO)NC(=O)[C@H](CO)NC(=O)[C@H](CO)NC(=O)O)C(=O)O [AST-009, H-Lys-Ser-Ser-Ser-OH] | 7944 ± 427 ng/g | 1205 ± 120 ng/mL | up to 139% | no significant difference | 64.3% | 45.5% | 20.0% | – | – | – | – | –
N[C@@H](CO)C(=O)O [L-serine] | – | – | – | no significant difference | 59.9% | 58.7% | 54.5% | 7314 ± 2071 ng/g | 2121 ± 1192 ng/mL | 4.16 ± 2.03 | 4.16 ± 2.03 | slightly inhibited cell proliferation

From US20210403419A1, “SERINE DERIVATIVE COMPOUND FOR THE PREVENTION OR TREATMENT OF CENTRAL NERVOUS SYSTEM DISEASES” (Astrogen Co., Ltd., priority 2019, published 2021)
